The supplement of paper PMC8498969

Experiments:
HEK293 [1] = test: maximal inhibition of ZIKV NS1 production (% inhibition); higher = stronger antiviral effect
Procedure: (§1)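 HEK293 cells in 1536-well plates were pre-treated with compound for 1 h, infected with ZIKV (MOI 1) for 24 h, and NS1 antigen (intra- plus extracellular) was measured by TR-FRET. Confirmation used 11-point 1:3 dilutions, and IC50 and maximal inhibition were fitted in GraphPad Prism.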

HEK293 [2] = test: cytotoxicity IC50 (ATP content, uninfected cells); higher = less cytotoxic; conditions: infection: none
HEK293 [3] = test: IC50 for inhibition of ZIKV NS1 production
Procedure: as §1

Row | SMILES | maximal inhibition (HEK293 [1]) | cytotoxicity IC50 (HEK293 [2]) | IC50 (HEK293 [3])
1 | CCC[C@@H](C=O)NC(=O)[C@H](CC(C)C)NC(=O)[C@H](CC(C)C)NC(=O)OCc1ccccc1 | 94 | 2.4 µM | 1.6 µM
2 | CC(=O)O[C@H]1C(=O)[C@@]2(C)[C@H]([C@H](OC(=O)c3ccccc3)[C@]3(O)C[C@H](OC(=O)[C@H](O)[C@@H](NC(=O)c4ccccc4)c4ccccc4)C(C)=C1C3(C)C)[C@]1(OC(C)=O)CO[C@@H]1C[C@@H]2O | 38 | > 100 µM | 0.089 µM
3 | O=[N+]([O-])c1ccc(O)c2ncccc12 | 94 | 4.7 µM | 6 µM
4 | CC[C@]1(O)C[C@H]2CN(CCc3c([nH]c4ccccc34)[C@@](C(=O)OC)(c3cc4c(cc3OC)N(C=O)[C@H]3[C@@](O)(C(=O)OC)[C@H](OC(C)=O)[C@]5(CC)C=CCN6CC[C@]43[C@@H]65)C2)C1 | 55 | > 100 µM | 0.16 µM
5 | COc1ccc(OC)c(-c2nnc3ccc(-c4ccc(OC)c(O[C@@H]5CCOC5)c4)nn23)c1 | 42 | > 100 µM | 40 µM
6 | C=C1C(=O)[C@]23[C@H](O)[C@H]1CC[C@H]2[C@@]12CO[C@]3(O)[C@@H](O)[C@@H]1C(C)(C)CC[C@@H]2O | 108 | 40 µM | 17 µM
7 | CCC[C@H](Nc1nc(-c2ccc(NC(=O)NCC)c(OC)c2)ncc1C)c1cccnc1 | 72 | > 100 µM | 0.17 µM
8 | Oc1ccc(-c2ccc(-c3cc(Nc4cccc(CNC5CC5)c4)n[nH]3)cc2)c(O)c1 | 108 | 27 µM | 1.5 µM
9 | COC(=O)[C@]12CCC(C)(C)C[C@H]1[C@H]1C(=O)C=C3[C@@]4(C)C=C(C#N)C(=O)C(C)(C)[C@@H]4CC[C@@]3(C)[C@]1(C)CC2 | 100 | 2.7 µM | 0.28 µM
10 | O=c1[nH]nc(Sc2ncc([N+](=O)[O-])s2)n1-c1ccc2c(c1)OCCO2 | 97 | 12 µM | 8 µM
11 | OC[C@H]1O[C@@H](n2cnc3c(S)ncnc32)[C@H](O)[C@@H]1O | 99 | 4.1 µM | 8 µM
12 | CC[C@H]1CN2CCc3cc(OC)c(OC)cc3[C@@H]2C[C@@H]1C[C@H]1NCCc2cc(OC)c(OC)cc21 | 103 | > 100 µM | 0.11 µM
13 | CCOC(=O)C1(c2ccccc2)CCN(CCC(C#N)(c2ccccc2)c2ccccc2)CC1 | 105 | 9.2 µM | 6 µM
14 | c1ccc2c(CCNc3ccc(Nc4ccncc4)cc3)c[nH]c2c1 | 51 | > 100 µM | 23 µM
15 | Cn1c(=O)n(-c2ccc(C(C)(C)C#N)cc2)c2c3cc(-c4cnc5ccccc5c4)ccc3ncc21 | 82 | 0.53 µM | 3.2 µM
16 | CCOC(=O)C1=C(C)NC(=S)NC1c1cccc(O)c1 (configuration not stated) | 89 | > 100 µM | 50 µM
17 | Cc1c(N)nc([C@H](CC(N)=O)NC[C@@H](N)C(N)=O)nc1C(=O)N[C@H](C(=O)N[C@@H](C)[C@H](O)[C@@H](C)C(=O)N[C@@H](C(=O)NCCc1nc(-c2nc(C(=O)NCCC[S+](C)C)cs2)cs1)[C@@H](C)O)C(O[C@H]1O[C@H](CO)[C@H](O)[C@@H](O)[C@H]1O[C@H]1O[C@H](CO)[C@@H](O)[C@H](OC(N)=O)[C@@H]1O)c1cnc[nH]1 (some centres not stated) | 103 | > 100 µM | 6.3 µM
18 | CCC(=O)N1CCN(c2ccc(-n3c(=O)ccc4cnc5ccc(-c6cnc7ccccc7c6)cc5c43)cc2C(F)(F)F)CC1 | – | 1.5 µM | –
19 | CC(C)(C)CC(C)(C)c1ccc(OCCOCC[N+](C)(C)Cc2ccccc2)cc1 | 103 | – | 9 µM
20 | CCc1cnn2c(NCc3ccc[n+]([O-])c3)cc(N3CCCC[C@H]3CCO)nc12 | 90 | > 100 µM | –
21 | CC[C@@H]1C(=O)N(C)c2cnc(Nc3ccc(C(=O)NC4CCN(C)CC4)cc3OC)nc2N1C1CCCC1 | – | > 100 µM | –
